System: Plasmodium berghei
Test: Luciferase/luciferin-expressing antifolate-resistant parasites were used to infect a culture of HepG2 cells that were pre-incubated with compounds. Infected hepatocytes emit light due to the luciferase reaction. Assay results are presented as the percent inhibition of light emission compared to control. […]
Type: functional
Details: sporozoite; for IC90: read-out: LUCIFERASE INFECTION ASSAY - IC90
[1] = read-out: LUCIFERASE INFECTION ASSAY - IC50

Structure (SMILES): O=C(COC(=O)c1cn(-c2ccccc2)nc1-c1ccccc1)Nc1ccc(Cl)c(S(=O)(=O)N2CCOCC2)c1
- IC50 (PBLUC_HILL_SLOPE 2.11, PBLUC_R_SQUARED 0.445, read-out: LUCIFERASE INFECTION ASSAY - IC50): 5.37 µM
- IC90: > 10 µM

Structure (SMILES): C=CCSc1nnc(-c2ccc(C(C)(C)C)cc2)n1-c1ccc(C(C)C)cc1
- IC50 (HEPG2TOX_HILL_SLOPE 6.39, HEPG2TOX_R_SQUARED 0.425, PBLUC_HILL_SLOPE 3, PBLUC_R_SQUARED 0.616, read-out: LUCIFERASE INFECTION ASSAY - IC50): > 8.43 µM
- IC90: > 8.43 µM

Structure (SMILES): Cc1ccc(S(=O)(=O)Nc2cccc(C(=O)NN(C)c3ccccc3)c2)cc1F
- IC50 [1]: > 10 µM
- IC90: > 10 µM

Structure (SMILES): CC1C/C(=N\Nc2cc(Cl)cc(Cl)c2)c2cc(Cl)ccc2S1(=O)=O (stereo not given)
- IC50 [1]: 6.27 µM
- IC90: > 8.17 µM

Structure (SMILES): CCc1ccc(CN(Cc2cccnc2)C(=O)c2ccc3ccccc3n2)cc1
- IC50 (PBLUC_HILL_SLOPE 15.3, PBLUC_R_SQUARED 0.276, read-out: LUCIFERASE INFECTION ASSAY - IC50): 3.69 µM
- IC90: 4.26 µM

Structure (SMILES): C=CCn1c(SCc2cc([N+](=O)[O-])cc3c2OCOC3)nc2cc(C(=O)O)ccc2c1=O
- IC50 [1]: 1.82 µM
- IC90: 6.97 µM

Structure (SMILES): CN(C)S(=O)(=O)c1ccc(N2CCCC2)c(C(=O)N2CCCC2)c1
- IC50 [1]: > 10 µM
- IC90: > 10 µM

Structure (SMILES): O=C(Nc1ccc(SC(F)(F)F)cc1)Nc1ccc(Oc2ccc(Cl)cc2Cl)nc1
- IC50 (FFLUC_HILL_SLOPE 4.22, FFLUC_R_SQUARED 0.441, HEPG2TOX_HILL_SLOPE 15.8, HEPG2TOX_R_SQUARED 0.933, PBLUC_HILL_SLOPE 1.66, PBLUC_R_SQUARED 0.482, read-out: LUCIFERASE INFECTION ASSAY - IC50): 1.59 µM
- IC90: 5.98 µM

Structure (SMILES): COc1cc(C(=O)OC(C)c2ccc(F)cc2)cc(OC)c1OC (stereo not given)
- IC50 (PBLUC_HILL_SLOPE 3.41, PBLUC_R_SQUARED 0.0259, read-out: LUCIFERASE INFECTION ASSAY - IC50): 9.26 µM
- IC90: > 10 µM

Structure (SMILES): CC(C)(C)c1ccc(NC(=O)c2cnccn2)cc1
- IC50 (FFLUC_HILL_SLOPE 1.15, FFLUC_R_SQUARED 0.77, PBLUC_HILL_SLOPE 0.39, PBLUC_R_SQUARED 0.583, read-out: LUCIFERASE INFECTION ASSAY - IC50): 0.0298 µM
- IC90: 8.29 µM

Structure (SMILES): CN(C)c1nc(N)nc(CN(Cc2nc(N)nc(N(C)C)n2)C23CC4CC(CC(C4)C2)C3)n1
- IC50 (HEPG2TOX_HILL_SLOPE 0.693, HEPG2TOX_R_SQUARED 0.937, PBLUC_HILL_SLOPE 2.94, PBLUC_R_SQUARED 0.84, read-out: LUCIFERASE INFECTION ASSAY - IC50): 0.0707 µM
- IC90: 0.149 µM

Structure (SMILES): OC(Cc1ccccc1)(c1ccccc1)c1ccccc1/N=C/c1ccc(Cl)c(Cl)c1 (stereo not given)
- IC50 [1]: > 7.39 µM
- IC90: > 7.39 µM

Structure (SMILES): CCc1nn2c(NCc3cccnc3)cc(C)nc2c1-c1ccccc1
- IC50 (PBLUC_HILL_SLOPE 2.62, PBLUC_R_SQUARED 0.301, read-out: LUCIFERASE INFECTION ASSAY - IC50): 7.32 µM
- IC90: > 9.61 µM

Structure (SMILES): CC(=O)n1ncc(Sc2ccc(Cl)cc2)c1-c1ccc(Cl)cc1
- IC50 (FFLUC_HILL_SLOPE 25.1, FFLUC_R_SQUARED 0.0752, read-out: LUCIFERASE INFECTION ASSAY - IC50): > 9.08 µM
- IC90: > 9.08 µM

Structure (SMILES): CN(C)c1cc(-c2cc(Cl)sc2Cl)oc(=O)c1Cl
- IC50 [1]: > 10.2 µM
- IC90: > 10.2 µM

Structure (SMILES): COc1cc(NC(=O)CSc2nc(N)c3c4c(sc3n2)CCCC4)c(C)cc1[N+](=O)[O-]
- IC50 [1]: 3.53 µM
- IC90: > 10 µM

Structure (SMILES): O=C(Nc1cccc(C#Cc2ccccc2)c1)c1ccoc1
- IC50 [1]: > 10 µM
- IC90: > 10 µM

Structure (SMILES): CN1CCN(c2ccc(-c3cn4c(-c5ccccc5Cl)cnc4cn3)cn2)CC1
- IC50 (PBLUC_HILL_SLOPE 0.491, PBLUC_R_SQUARED 0.57, read-out: LUCIFERASE INFECTION ASSAY - IC50): 3.67 µM
- IC90: > 8.15 µM

Structure (SMILES): CSCc1cc(N2CCOCC2)nc(SCc2ccc(Cl)cc2Cl)n1
- IC50 [1]: > 7.93 µM
- IC90: > 7.93 µM

Structure (SMILES): N#C/C(=C\c1ccc(O)cc1)c1nc(C(c2ccccc2)c2ccccc2)no1
- IC50 (FFLUC_HILL_SLOPE 12.8, FFLUC_R_SQUARED 0.5, read-out: LUCIFERASE INFECTION ASSAY - IC50): > 10 µM
- IC90: > 10 µM

Structure (SMILES): Cc1ccccc1CN1CCN2C=C(C(=O)Nc3ccc(OCc4ccccc4)cc3)OC2=NC1=O
- IC50 [1]: > 10 µM
- IC90: > 10 µM

Structure (SMILES): O=C(Nc1ccccc1)N1CCc2nc(NCc3cccc(Oc4ccccc4)c3)ncc2C1
- IC50 (HEPG2TOX_HILL_SLOPE 4.26, HEPG2TOX_R_SQUARED 0.801, PBLUC_HILL_SLOPE 11.5, PBLUC_R_SQUARED 0.365, read-out: LUCIFERASE INFECTION ASSAY - IC50): 2.6 µM
- IC90: 3.15 µM

Structure (SMILES): CCC(=O)N1CCCC(C(=O)NCc2ccc(C(C)C)cc2)CC1 (stereo not given)
- IC50 [1]: > 9.99 µM
- IC90: > 9.99 µM

Structure (SMILES): C/C(=N\NC(=N)N)c1ccc(Br)cc1
- IC50 (HEPG2TOX_HILL_SLOPE 2.15, HEPG2TOX_R_SQUARED 0.936, PBLUC_HILL_SLOPE 0.739, PBLUC_R_SQUARED 0.608, read-out: LUCIFERASE INFECTION ASSAY - IC50): 5.11 µM
- IC90: > 12.9 µM

Structure (SMILES): O=C(NNC(=O)c1cc(F)c(F)c(F)c1F)c1ccc(COc2cccc3cccnc23)cc1
- IC50 [1]: > 10 µM
- IC90: > 10 µM

Structure (SMILES): CC(C)(C)c1ccc(C(=O)Nc2cc(Cl)ccc2OC(=O)c2ccc(C(C)(C)C)cc2)cc1
- IC50 (PBLUC_HILL_SLOPE 0.69, PBLUC_R_SQUARED 0.715, read-out: LUCIFERASE INFECTION ASSAY - IC50): 0.555 µM
- IC90: > 7.11 µM

Structure (SMILES): COc1ccc(-c2nc(C)c(C(=O)NCc3ccc(-n4cccn4)nc3)s2)cc1
- IC50 [1]: > 10 µM
- IC90: > 10 µM

Structure (SMILES): COc1cc(C(=O)Nc2ccc(C(=O)NC3CC3)cc2)cc(Cl)c1OC(C)C
- IC50 (PBLUC_HILL_SLOPE 2.4, PBLUC_R_SQUARED 0.128, read-out: LUCIFERASE INFECTION ASSAY - IC50): 6.06 µM
- IC90: > 10 µM

Structure (SMILES): CC(c1ccc(-n2cncn2)cc1)N(C)c1ccc2nnnn2n1 (stereo not given)
- IC50 [1]: > 10 µM
- IC90: > 10 µM

Structure (SMILES): Oc1cccc(-c2cnc3cnc(-c4ccc(Cl)cc4)cn23)c1
- IC50 (HEPG2TOX_HILL_SLOPE 0.659, HEPG2TOX_R_SQUARED 0.949, PBLUC_HILL_SLOPE 0.784, PBLUC_R_SQUARED 0.857, read-out: LUCIFERASE INFECTION ASSAY - IC50): 1.55 µM
- IC90: > 10.3 µM

Structure (SMILES): Cc1cccc2sc(C(=O)NCc3cccc(NS(N)(=O)=O)c3)c(Cl)c12
- IC50 (PBLUC_HILL_SLOPE 16.9, PBLUC_R_SQUARED 0.264, read-out: LUCIFERASE INFECTION ASSAY - IC50): 1.14 µM
- IC90: 1.3 µM

Structure (SMILES): Clc1ccc2c(Nc3ccc(N4CCOCC4)cc3)ccnc2c1
- IC50 [1]: > 10 µM
- IC90: > 10 µM

Structure (SMILES): O=C(Cc1csc(COc2ccc(Cl)cc2)n1)Nc1ccccc1O
- IC50 (PBLUC_HILL_SLOPE 11.8, PBLUC_R_SQUARED 0.113, read-out: LUCIFERASE INFECTION ASSAY - IC50): 9.28 µM
- IC90: > 10 µM

Structure (SMILES): Fc1cccc(-c2nc3ccnc(NCCc4ccccn4)c3[nH]2)c1
- IC50 (HEPG2TOX_HILL_SLOPE 2.04, HEPG2TOX_R_SQUARED 0.803, PBLUC_HILL_SLOPE 12.8, PBLUC_R_SQUARED 0.152, read-out: LUCIFERASE INFECTION ASSAY - IC50): 3.38 µM
- IC90: 4.02 µM

Structure (SMILES): Cn1cc(-c2cnc3cnc(-c4ccccc4)cn23)cn1
- IC50 (PBLUC_HILL_SLOPE 2.38, PBLUC_R_SQUARED 0.622, read-out: LUCIFERASE INFECTION ASSAY - IC50): 2.36 µM
- IC90: 5.95 µM

Structure (SMILES): COc1ccccc1-c1nc2c3c(C)c(C)n(CCCO)c3ncn2n1
- IC50 (PBLUC_HILL_SLOPE 14, PBLUC_R_SQUARED 0.452, read-out: LUCIFERASE INFECTION ASSAY - IC50): 8.69 µM
- IC90: > 9.39 µM

Structure (SMILES): Cc1ccc(-n2c(Sc3ccc4nnnn4n3)nc3sc4c(c3c2=O)CCC(C)C4)cc1C (stereo not given)
- IC50 (FFLUC_HILL_SLOPE 3.23, FFLUC_R_SQUARED 0.696, PBLUC_HILL_SLOPE 2.23, PBLUC_R_SQUARED 0.861, read-out: LUCIFERASE INFECTION ASSAY - IC50): 4.15 µM
- IC90: > 10 µM

Structure (SMILES): CCCCCc1ccc(C(=O)Nc2nc3ccccn3c2C(=O)NCCCN2CCOCC2)cc1
- IC50 (PBLUC_HILL_SLOPE 8.91, PBLUC_R_SQUARED 0.136, read-out: LUCIFERASE INFECTION ASSAY - IC50): 2.74 µM
- IC90: 3.5 µM

Structure (SMILES): CC(C)Cc1ccc(C(C)c2nn3c(-c4ccco4)nnc3s2)cc1 (stereo not given)
- IC50 (HEPG2TOX_HILL_SLOPE 0.343, HEPG2TOX_R_SQUARED 0.467, PBLUC_HILL_SLOPE 2.04, PBLUC_R_SQUARED 0.902, read-out: LUCIFERASE INFECTION ASSAY - IC50): 0.0873 µM
- IC90: 0.257 µM

Structure (SMILES): Clc1ccccc1-c1cn2c(-c3ccncc3)cnc2cn1
- IC50 (PBLUC_HILL_SLOPE 5.69, PBLUC_R_SQUARED 0.296, read-out: LUCIFERASE INFECTION ASSAY - IC50): 10.2 µM
- IC90: > 10.8 µM

Structure (SMILES): COc1ccccc1C1CCN(c2ccc([N+](=O)[O-])c(C(F)(F)F)c2)CC1
- IC50 [1]: > 8.68 µM
- IC90: > 8.68 µM

Structure (SMILES): COc1ccc(CNc2ncnc3scc(-c4ccccc4)c23)cc1OC
- IC50 (HEPG2TOX_HILL_SLOPE 0.633, HEPG2TOX_R_SQUARED 0.925, PBLUC_HILL_SLOPE 1.59, PBLUC_R_SQUARED 0.666, read-out: LUCIFERASE INFECTION ASSAY - IC50): 2.4 µM
- IC90: 9.56 µM

Structure (SMILES): c1coc(-c2c3c(nc4c2oc2ccccc24)CCCCCCCCCC3)c1
- IC50 (FFLUC_HILL_SLOPE 1.77, FFLUC_R_SQUARED 0.636, read-out: LUCIFERASE INFECTION ASSAY - IC50): > 10 µM
- IC90: > 10 µM

Structure (SMILES): COc1ccc(NS(=O)(=O)c2cc(NC(=O)c3cc(S(=O)(=O)Nc4ccc(Cl)cc4)ccc3Cl)ccc2N2CCOCC2)cc1
- IC50 [1]: > 10 µM
- IC90: > 10 µM

Structure (SMILES): O=C(O)c1ccc(Cl)cc1Oc1ccccc1
- IC50 (FFLUC_HILL_SLOPE 1.52, FFLUC_R_SQUARED 0.302, read-out: LUCIFERASE INFECTION ASSAY - IC50): > 13.3 µM
- IC90: > 13.3 µM

Reference: ChEMBL document CHEMBL4483862, “Open-source discovery of chemical leads for next-generation chemoprotective antimalarials” (2018)
